Test results taken from US20090209469A1, “Use of Exendins and GLP-1 Receptor Agonists for Altering Lipoprotein Particle Size and Subclass Composition” (priority 2006, published 2009).

Key:
[1] = tested on: Patients with type 2 diabetes inadequately controlled by sulphonylurea and metformin; experiment: Lipoprotein subclass particle concentrations and average particle diameters by proton NMR spectroscopy, 1-year open-label trial (test meal study); format: in vivo, human; details: change from baseline to endpoint (week 52), type 2 diabetes patients
Procedure: In the context of the present invention, lipoprotein concentrations are measured according to standard nuclear magnetic resonance techniques, where the measured amplitudes of characteristic lipid methyl group signals provide particle concentrations.
In the context of the present invention, lipoprotein subclass particle concentrations and average particle diameters are measured using proton nuclear magnetic resonance spectroscopy using the algorithm of LipoScience, Inc. See e.g., Festa et al., Nuclear Magnetic Resonance Lipoprotein Abnormalities in Prediabetic Subjects in the Insulin Resistance Artherosclerosis Study, Circulation, 111:3465-3472 (2005). […]
Lipoprotein subclass particle concentrations and average particle diameters are measured using proton nuclear magnetic resonance spectroscopy. See e.g., Festa et at., Nuclear Magnetic Resonance Lipoprotein Abnormalities in Prediabetic Subjects in the Insulin Resistance Artherosclerosis Study, Circulation, 111:3465-3472 (2005).
The particle concentrations of different lipoprotein subclasses are obtained by measuring the amplitudes of the characteristic lipid methyl NMR signals. The signal amplitudes of various subclasses are extracted from the overall lipid methyl group signal with a spectral deconvolution algorithm (Lipo Science, Inc.). See e.g., Festa. VLDL and LDL particle concentrations are given in nanomoles per liter. HDL particle concentrations are provided in micromoles per liter.
Average particle sizes (in nanometers diameter) are computed as the sum of the diameter of the particle subclass multiplied by the relative mass percentage of the subclass as estimated from the amplitude of its methyl NMR signal.
Particle concentrations and sizes are compared before and after administration of an exendin or exendin agonist. See e.g., Table 1.

[2] = tested on: Patients with type 2 diabetes inadequately controlled by sulphonylurea and metformin; experiment: Fibrinogen concentration by the von Clauss clotting method; format: in vivo, human; details: type 2 diabetes patients
Procedure: For test meal data, postprandial glucose incremental AUC0-4h is calculated at baseline and week 52.
Fibrinogen activity is measured by the von Clauss clotting method. By the von Clauss clotting method, thrombin is added to a test sample and the time until clotting is measured. Fibrinogen concentration is determined by comparing clotting time for the test sample to the clotting time of a standard curve for various reference plasmas.
Fibrinogen is measured at baseline, Week 16, Week 52, or at early termination of the study.

biphasic insulin aspart 30/70
HDL Particle Size, Δ mean [1]: +0.04 nm | VLDL Particle Size, Δ mean [1]: −1.6 nm | LDL Particle Size, Δ mean ([1]; exenatide 5 μg BID 4 weeks then 10 μg BID 48 weeks vs biphasic insulin aspart 30/70): +0.11 nm | Large HDL, Δ mean ([1]; particle concentration): +1.0 μmol/L | Large LDL, Δ mean ([1]; particle concentration): +37.7 nmol/L | Small LDL, Δ mean ([1]; particle concentration): -25.8 nmol/L | Small VLDL, Δ mean ([1]; particle concentration): +8.5 nmol/L | Total HDL, Δ mean ([1]; particle concentration): +2.5 μmol/L | Total LDL, Δ mean ([1]; particle concentration): +5.0 nmol/L | Total VLDL, Δ mean ([1]; particle concentration): +12.9 nmol/L | Very Small LDL, Δ mean ([1]; particle concentration): -17.0 nmol/L | Fibrinogen level, mean, Baseline ([2]; baseline, before treatment): 4.22 g/L | Fibrinogen level, mean, Endpoint (LOCF) ([2]; endpoint, last post-baseline measurement carried forward (Week 16, Week 52 or early termination)): 4.16 g/L
